Laboratory results from US6068687A, “Azo dyes and their preparation and use” (Ilford Imaging Switzerland GmbH, priority 1997, dated 2000).

Assays:
[1] = Hydrolysis stability (pH change of 5% aqueous dye solution on storage); format: physicochemical; settings: for pH change during storage: 5% by weight aqueous solution, initial pH 7.0, 60° C, 30 days; for Stability against hydrolysis compared with known dye (2) (in words): comparison with dye (2), Table 4
Description: An aqueous solution (5% by weight) was prepared and the pH value of this solution was adjusted to 7.0. The solution was filtered through a Millipore® filter of 0.5 μm pore diameter. The filtered solution was then heated to a temperature of 60° C. for 30 days, cooled down afterwards to a temperature of 20° C. and the pH value was measured again. The difference of the pH values before and after storage is an indicator of hydrolysis stability.

[2] = Jetting stability of inks (IRIS ink jet printer nozzle); design: key: ⊕: Unchanged; .diamond.: Slightly changed; .O slashed.: Heavily changed; settings: 100 hours continual jetting, exit angle and nozzle condition
Description: (§1) 100 g of each ink were prepared by heating the necessary components from Table 3 (all amounts are indicated in grams) together with water at a temperature of 50° C. under stirring for one hour. The resulting solution was cooled down to 20° C., its pH value was adjusted to 7.5 and the solution was passed through a Millipore® filter of 0.5 μm pore diameter.
The inks were expelled continually during 100 hours from a nozzle of the IRIS ink jet printer. Afterwards the change of the exit angle of the ink stream and the condition of the nozzle were evaluated in the following way: […]

[3] = Storage stability of inks (precipitation); format: physicochemical; design: key: ⊕: No precipitation; .diamond.: Slight precipitation; .O slashed.: Heavy precipitation; settings: ink, 0° C, 30 days, hermetically sealed bottles
Description: as §1
The inks were stored at a temperature of 0° C. for 30 days in hermetically sealed bottles. The quantity of precipitate eventually formed was evaluated in the following way: […]

[4] = Dye solubility in deionised water (spectroscopic determination in filtered solution); format: physicochemical; settings: for Solubility: deionised water, stirred 1 hour at 50° C, cooled to 20° C, filtered; for Solubility compared with previously known dye (in words): comparison with known dye, Table 4
Description: An excess of dye was dispersed in deionised water and this dispersion was stirred for 1 hour at 50° C. Then the mixture was cooled down to 20° C., centrifuged and filtered through a Millipore® filter of 0.5 μm pore diameter. Dye solubility was determined spectroscopically in the filtered solution.

| Compound | pH change during storage [1] | (D) Jetting stability [2] | (C) Storage stability [3] | Solubility [4] [g per 100 ml] | Stability against hydrolysis compared with known dye (2) (in words) [1] | Solubility compared with previously known dye (in words) [4] |
| --- | --- | --- | --- | --- | --- | --- |
| Nc1ccc2cc(S(=O)(=O)O)cc(O)c2c1N=Nc1ccc(Nc2nc(NCCO)nc(Nc3cccc(S(=O)(=O)O)c3)n2)cc1S(=O)(=O)O [(1)] | -0.2 | .diamond. | .diamond. | 12 | – | – |
| COc1cc(N=Nc2cc(S(=O)(=O)O)c3cccc(S(=O)(=O)O)c3c2)c(C)cc1Nc1nc(SCCCS(=O)(=O)O)nc(SCCCS(=O)(=O)O)n1 [(2)] | -0.5 | ⊕ | ⊕ | 34 | – | – |
| CCOc1nc(Nc2cc(C)c(N=Nc3cc(S(=O)(=O)O)c4cccc(S(=O)(=O)O)c4c3)cc2OC)nc(SCCCS(=O)(=O)O)n1 [(100)] | 0 | ⊕ | ⊕ | 32 | much better stability against hydrolysis than the known dye (2) | considerably higher solubility than the previously known dye (2) |
| CCOc1nc(Nc2ccc(N=Nc3c(N)ccc4cc(S(=O)(=O)O)cc(O)c34)c(S(=O)(=O)O)c2)nc(SCCCS(=O)(=O)O)n1 [(113)] | -0.1 | ⊕ | ⊕ | 32 | much better stability against hydrolysis than the known dye (2) | considerably higher solubility than the previously known dye (2) |
| CCN(c1ccccc1)c1nc(Nc2cc(S(=O)(=O)O)cc3cc(S(=O)(=O)O)c(N=Nc4ccccc4S(=O)(=O)O)c(O)c23)nc(SCCCS(=O)(=O)O)n1 [(117)] | – | ⊕ | ⊕ | – | – | – |
| COc1cc(N=Nc2cc(S(=O)(=O)O)c3cccc(S(=O)(=O)O)c3c2)c(C)cc1Nc1nc(SCCCS(=O)(=O)O)nc(N(C)CCO)n1 [(120)] | 0 | ⊕ | ⊕ | 34 | much better stability against hydrolysis than the known dye (2) | considerably higher solubility than the previously known dye (2) |
| Nc1ccc2cc(S(=O)(=O)O)cc(O)c2c1N=Nc1ccc(Nc2nc(SCCCS(=O)(=O)O)nc(N(CCO)CCO)n2)cc1S(=O)(=O)O [(121)] | -0.1 | ⊕ | ⊕ | 38 | much better stability against hydrolysis than the known dye (2) | considerably higher solubility than the previously known dye (2) |
